From publication PMC5862592, “CDK8/19 inhibition induces premature G1/S transition and ATR-dependent cell death in prostate cancer cells” (Oncotarget, 2018)
Where two headings read alike, the source gives them in different places.

Columns and labels:
Assay in all cases: biochemical
Set-up in all cases: KINOMEscan active site-directed competition binding assay (DiscoveRx), 456 kinases, per cent of control at 300 nM
Settings in all cases: read-out: Percent of Control (%)
YANK1 = target: T1, YANK1 (Homo sapiens, UniProt Q8WU08)
T1 construct: gene STK32A
Experimental: (§1) Kinase selectivity of T-474 and T-418 was evaluated at 300 nmol/L using a panel of 456 kinases at DiscoveRx (KINOMEscan). The platform employs an active site-directed competition binding assay to quantitatively measure interactions between test compounds and kinases. […] In VCaP prostate cancer cells, treatment with T-474 or T-418 suppressed the phosphorylation of the known CDK8 substrate STAT1 at Ser727 both in the absence and in the presence of IFN-γ (Figure 1B), which stimulates CDK8-mediated STAT1 phosphorylation.

MST2 = target: T2, MST2 (Homo sapiens, UniProt Q13188)
T2 construct: gene STK3
Experimental: as §1

FAK = target: T3, FAK (Homo sapiens, UniProt Q05397)
T3 construct: gene PTK2
Experimental: as §1

CLK4 = CLK4 (Homo sapiens, UniProt Q9HAZ1)
Experimental: as §1

CSF1R-autoinhibited = CSF1R-autoinhibited (Homo sapiens, UniProt P07333)
Experimental: as §1

PFTK1 = target: T4, PFTK1 (Homo sapiens, UniProt O94921)
T4 construct: gene CDK14
Experimental: as §1

[1] = target: T5, ABL1(M351T)-phosphorylated (Homo sapiens, UniProt P00519, M351T)
T5 construct: phosphorylated
Experimental: as §1

TYRO3 = TYRO3 (Homo sapiens, UniProt Q06418)
Experimental: as §1

[2] = target: T6, TYK2(JH1domain-catalytic) (Homo sapiens, UniProt P29597)
T6 construct: JH1domain-catalytic
Experimental: as §1

EGFR(L861Q) = EGFR(L861Q) (Homo sapiens, UniProt P00533, L861Q)
Experimental: as §1

NEK1 = NEK1 (Homo sapiens, UniProt Q96PY6)
Experimental: as §1

EPHB2 = EPHB2 (Homo sapiens, UniProt P29323)
Experimental: as §1

FLT3(R834Q) = FLT3(R834Q) (Homo sapiens, UniProt P36888, R834Q)
Experimental: as §1

CDC2L1 = target: T7, CDC2L1 (Homo sapiens, UniProt P21127)
T7 construct: gene CDK11B
Experimental: as §1

TIE1 = TIE1 (Homo sapiens, UniProt P35590)
Experimental: as §1

TESK1 = TESK1 (Homo sapiens, UniProt Q15569)
Experimental: as §1

PIP5K1C = PIP5K1C (Homo sapiens, UniProt O60331)
Experimental: as §1

TLK1 = TLK1 (Homo sapiens, UniProt Q9UKI8)
Experimental: as §1

CSNK1G3 = CSNK1G3 (Homo sapiens, UniProt Q9Y6M4)
Experimental: as §1

CLK2 = CLK2 (Homo sapiens, UniProt P49760)
Experimental: as §1

NIM1 = target: T8, NIM1 (Homo sapiens, UniProt Q8IY84)
T8 construct: gene NIM1K
Experimental: as §1

MYLK = MYLK (Homo sapiens, UniProt Q15746)
Experimental: as §1

T8 sequence (Q8IY84 whole entry): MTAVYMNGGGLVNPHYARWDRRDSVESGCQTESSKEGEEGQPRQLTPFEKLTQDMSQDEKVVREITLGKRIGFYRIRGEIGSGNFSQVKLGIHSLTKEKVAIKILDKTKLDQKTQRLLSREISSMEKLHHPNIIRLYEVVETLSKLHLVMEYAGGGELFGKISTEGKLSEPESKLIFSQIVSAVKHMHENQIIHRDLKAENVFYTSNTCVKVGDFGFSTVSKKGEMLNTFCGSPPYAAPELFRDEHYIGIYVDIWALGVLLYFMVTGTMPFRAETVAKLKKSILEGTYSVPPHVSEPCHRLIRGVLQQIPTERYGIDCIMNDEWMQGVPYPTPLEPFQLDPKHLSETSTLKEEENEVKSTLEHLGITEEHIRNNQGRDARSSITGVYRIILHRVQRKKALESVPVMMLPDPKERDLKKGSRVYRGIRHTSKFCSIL
Sequence of MYLK (Q15746 whole entry): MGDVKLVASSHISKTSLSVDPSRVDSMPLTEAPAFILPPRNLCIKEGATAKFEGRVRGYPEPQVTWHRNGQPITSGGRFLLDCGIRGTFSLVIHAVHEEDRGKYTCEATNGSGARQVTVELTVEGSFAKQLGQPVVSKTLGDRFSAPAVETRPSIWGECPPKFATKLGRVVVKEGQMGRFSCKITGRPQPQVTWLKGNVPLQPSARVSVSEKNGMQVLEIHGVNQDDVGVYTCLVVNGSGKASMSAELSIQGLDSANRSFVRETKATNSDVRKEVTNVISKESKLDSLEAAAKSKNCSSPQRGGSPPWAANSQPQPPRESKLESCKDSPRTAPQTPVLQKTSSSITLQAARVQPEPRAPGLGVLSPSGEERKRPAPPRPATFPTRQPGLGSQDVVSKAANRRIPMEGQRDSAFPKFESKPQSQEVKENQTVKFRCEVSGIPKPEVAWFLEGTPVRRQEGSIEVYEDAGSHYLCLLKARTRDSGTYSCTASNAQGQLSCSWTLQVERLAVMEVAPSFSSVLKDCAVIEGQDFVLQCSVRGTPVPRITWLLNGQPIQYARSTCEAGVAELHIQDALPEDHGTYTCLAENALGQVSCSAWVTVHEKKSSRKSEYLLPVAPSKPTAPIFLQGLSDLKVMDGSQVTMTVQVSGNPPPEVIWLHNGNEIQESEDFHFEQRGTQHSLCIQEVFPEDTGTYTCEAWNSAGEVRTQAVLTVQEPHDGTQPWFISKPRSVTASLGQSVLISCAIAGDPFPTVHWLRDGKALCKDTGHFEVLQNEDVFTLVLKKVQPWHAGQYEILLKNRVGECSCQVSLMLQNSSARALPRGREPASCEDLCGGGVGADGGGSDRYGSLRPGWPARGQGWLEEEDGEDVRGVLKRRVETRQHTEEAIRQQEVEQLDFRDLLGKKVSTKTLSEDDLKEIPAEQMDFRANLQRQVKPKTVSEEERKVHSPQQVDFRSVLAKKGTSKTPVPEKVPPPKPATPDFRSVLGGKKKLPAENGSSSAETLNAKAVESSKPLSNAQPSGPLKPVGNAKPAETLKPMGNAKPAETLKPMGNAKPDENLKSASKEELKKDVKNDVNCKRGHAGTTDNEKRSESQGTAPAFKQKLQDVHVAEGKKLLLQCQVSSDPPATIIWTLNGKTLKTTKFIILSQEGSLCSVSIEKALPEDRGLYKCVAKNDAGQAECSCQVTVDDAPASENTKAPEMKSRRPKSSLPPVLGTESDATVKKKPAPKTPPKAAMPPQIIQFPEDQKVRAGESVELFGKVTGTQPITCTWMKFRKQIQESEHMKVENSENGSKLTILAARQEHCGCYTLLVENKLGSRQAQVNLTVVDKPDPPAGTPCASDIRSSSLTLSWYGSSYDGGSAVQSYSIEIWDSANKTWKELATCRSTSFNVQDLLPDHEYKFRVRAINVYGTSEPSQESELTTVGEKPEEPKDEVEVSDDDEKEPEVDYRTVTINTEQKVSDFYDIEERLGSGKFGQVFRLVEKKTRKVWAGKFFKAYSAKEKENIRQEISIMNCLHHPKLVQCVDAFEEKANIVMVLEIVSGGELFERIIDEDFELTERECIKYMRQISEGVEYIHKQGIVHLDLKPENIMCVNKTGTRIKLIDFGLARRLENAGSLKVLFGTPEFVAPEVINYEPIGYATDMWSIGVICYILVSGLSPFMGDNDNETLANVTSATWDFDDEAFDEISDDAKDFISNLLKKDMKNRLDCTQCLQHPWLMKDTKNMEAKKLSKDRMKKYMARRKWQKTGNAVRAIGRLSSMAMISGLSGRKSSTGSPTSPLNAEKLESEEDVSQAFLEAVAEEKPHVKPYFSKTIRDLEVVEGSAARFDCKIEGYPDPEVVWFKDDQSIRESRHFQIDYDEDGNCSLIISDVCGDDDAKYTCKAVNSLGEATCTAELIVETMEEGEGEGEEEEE
T6 sequence (P29597 whole entry): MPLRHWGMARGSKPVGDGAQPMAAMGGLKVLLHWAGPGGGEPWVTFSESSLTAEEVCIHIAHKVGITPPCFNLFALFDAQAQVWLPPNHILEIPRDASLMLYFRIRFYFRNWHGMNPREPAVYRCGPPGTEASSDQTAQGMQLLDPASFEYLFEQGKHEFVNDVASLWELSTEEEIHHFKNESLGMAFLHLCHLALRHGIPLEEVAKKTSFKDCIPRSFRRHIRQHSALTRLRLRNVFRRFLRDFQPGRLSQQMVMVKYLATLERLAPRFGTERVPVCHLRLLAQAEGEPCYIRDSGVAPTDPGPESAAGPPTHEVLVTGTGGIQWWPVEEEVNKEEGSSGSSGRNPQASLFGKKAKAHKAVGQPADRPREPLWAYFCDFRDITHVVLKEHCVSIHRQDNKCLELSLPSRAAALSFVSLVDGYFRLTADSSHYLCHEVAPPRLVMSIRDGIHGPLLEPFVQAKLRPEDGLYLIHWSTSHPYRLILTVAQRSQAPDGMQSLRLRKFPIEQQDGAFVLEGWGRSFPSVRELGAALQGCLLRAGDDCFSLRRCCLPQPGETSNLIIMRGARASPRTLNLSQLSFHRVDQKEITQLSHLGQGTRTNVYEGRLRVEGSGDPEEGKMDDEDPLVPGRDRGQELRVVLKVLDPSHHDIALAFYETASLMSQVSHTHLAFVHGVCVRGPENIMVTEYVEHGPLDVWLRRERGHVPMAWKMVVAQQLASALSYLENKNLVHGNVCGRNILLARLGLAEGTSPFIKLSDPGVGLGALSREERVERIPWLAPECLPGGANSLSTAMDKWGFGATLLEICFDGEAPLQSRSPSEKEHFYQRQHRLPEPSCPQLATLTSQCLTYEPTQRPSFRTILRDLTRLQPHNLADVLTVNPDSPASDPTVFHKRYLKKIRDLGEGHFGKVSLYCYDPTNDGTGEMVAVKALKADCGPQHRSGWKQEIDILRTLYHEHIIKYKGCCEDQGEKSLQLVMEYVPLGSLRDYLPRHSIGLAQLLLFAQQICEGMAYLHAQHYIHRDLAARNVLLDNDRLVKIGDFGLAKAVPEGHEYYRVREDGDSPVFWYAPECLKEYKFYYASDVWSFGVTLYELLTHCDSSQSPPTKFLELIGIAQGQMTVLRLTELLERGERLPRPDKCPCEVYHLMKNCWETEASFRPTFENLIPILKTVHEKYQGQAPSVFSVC
Sequence of TESK1 (Q15569 whole entry): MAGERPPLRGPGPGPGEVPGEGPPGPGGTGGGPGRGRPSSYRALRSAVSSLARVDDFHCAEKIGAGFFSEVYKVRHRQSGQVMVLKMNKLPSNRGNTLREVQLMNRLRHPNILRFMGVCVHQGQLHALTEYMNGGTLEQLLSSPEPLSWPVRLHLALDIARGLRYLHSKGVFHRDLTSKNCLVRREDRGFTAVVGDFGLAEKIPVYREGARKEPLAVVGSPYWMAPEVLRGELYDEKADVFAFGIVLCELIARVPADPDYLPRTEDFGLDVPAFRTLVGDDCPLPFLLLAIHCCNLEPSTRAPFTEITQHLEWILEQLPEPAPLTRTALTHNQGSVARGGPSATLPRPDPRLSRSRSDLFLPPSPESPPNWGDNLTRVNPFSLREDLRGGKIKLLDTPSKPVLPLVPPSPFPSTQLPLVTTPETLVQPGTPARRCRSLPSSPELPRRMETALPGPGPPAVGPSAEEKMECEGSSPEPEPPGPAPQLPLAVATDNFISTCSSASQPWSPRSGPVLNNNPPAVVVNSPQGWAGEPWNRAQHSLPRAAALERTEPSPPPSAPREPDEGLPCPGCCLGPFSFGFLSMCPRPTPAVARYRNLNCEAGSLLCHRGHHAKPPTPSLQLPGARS
Sequence of CLK2 (P49760 whole entry): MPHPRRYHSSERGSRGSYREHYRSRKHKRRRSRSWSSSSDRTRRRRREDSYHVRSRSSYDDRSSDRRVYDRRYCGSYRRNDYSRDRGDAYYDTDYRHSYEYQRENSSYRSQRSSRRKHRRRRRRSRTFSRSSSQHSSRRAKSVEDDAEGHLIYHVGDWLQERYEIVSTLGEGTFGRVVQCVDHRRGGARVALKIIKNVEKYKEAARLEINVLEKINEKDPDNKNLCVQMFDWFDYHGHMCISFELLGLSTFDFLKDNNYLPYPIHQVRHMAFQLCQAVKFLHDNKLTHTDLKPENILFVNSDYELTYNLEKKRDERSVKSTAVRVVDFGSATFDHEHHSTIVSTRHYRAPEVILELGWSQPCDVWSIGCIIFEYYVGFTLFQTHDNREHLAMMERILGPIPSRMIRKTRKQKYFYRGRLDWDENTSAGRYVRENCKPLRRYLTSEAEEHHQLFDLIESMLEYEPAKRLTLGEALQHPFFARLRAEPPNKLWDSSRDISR
T1 sequence (Q8WU08 whole entry): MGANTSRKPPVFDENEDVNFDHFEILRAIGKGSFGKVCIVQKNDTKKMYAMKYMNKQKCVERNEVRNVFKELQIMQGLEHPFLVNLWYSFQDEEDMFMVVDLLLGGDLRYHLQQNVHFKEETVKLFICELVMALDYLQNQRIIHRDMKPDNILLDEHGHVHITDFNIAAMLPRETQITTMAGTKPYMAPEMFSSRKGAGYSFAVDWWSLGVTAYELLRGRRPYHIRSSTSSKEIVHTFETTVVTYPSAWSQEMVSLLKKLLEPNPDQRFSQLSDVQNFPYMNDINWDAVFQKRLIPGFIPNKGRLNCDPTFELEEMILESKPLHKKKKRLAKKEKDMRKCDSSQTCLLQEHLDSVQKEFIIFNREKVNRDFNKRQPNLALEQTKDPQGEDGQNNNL

Cc1ncccc1Oc1sc(C(N)=O)c2c1-c1c(cnn1C)CC2 [T-474, 1-methyl-8-((2-methylpyridin-3-yl)oxy)-4,5-dihydro-1H-thieno[3,4-g]indazole-6-carboxamide]
remaining binding at 0.3 µM (YANK1): 100% | remaining binding at 0.3 µM (MST2): 50% | remaining binding at 0.3 µM (FAK): 88% | remaining binding at 0.3 µM (CLK4): 50% | remaining binding at 0.3 µM (CSF1R-autoinhibited): 100% | remaining binding at 0.3 µM (PFTK1): 100% | remaining binding at 0.3 µM [1]: 100% | remaining binding at 0.3 µM (TYRO3): 95% | remaining binding at 0.3 µM [2]: 40% | remaining binding at 0.3 µM (EGFR(L861Q)): 91% | remaining binding at 0.3 µM (NEK1): 95% | remaining binding at 0.3 µM (EPHB2): 83% | remaining binding at 0.3 µM (FLT3(R834Q)): 91% | remaining binding at 0.3 µM (CDC2L1): 100% | remaining binding at 0.3 µM (TIE1): 100% | remaining binding at 0.3 µM (TESK1): 100% | remaining binding at 0.3 µM (PIP5K1C): 100% | remaining binding at 0.3 µM (TLK1): 100% | remaining binding at 0.3 µM (CSNK1G3): 100% | remaining binding at 0.3 µM (CLK2): 46% | remaining binding at 0.3 µM (NIM1): 63% | remaining binding at 0.3 µM (MYLK): 100%

O=C(/C=C/c1cnccc1-c1ccc(F)cc1)Nc1ccc(CCc2nnco2)cc1 [T-418, (2E)-3-(4-(4-fluorophenyl)pyridin-3-yl)-N-(4-(2-(1,3,4-oxadiazol-2-yl)ethyl)phenyl)acrylamide]
remaining binding at 0.3 µM (YANK1; sheet T-418): 100% | remaining binding at 0.3 µM (MST2; sheet T-418): 46% | remaining binding at 0.3 µM (FAK; sheet T-418): 80% | remaining binding at 0.3 µM (CLK4; sheet T-418): 100% | remaining binding at 0.3 µM (CSF1R-autoinhibited; sheet T-418): 86% | remaining binding at 0.3 µM (PFTK1; sheet T-418): 87% | remaining binding at 0.3 µM ([1]; sheet T-418): 100% | remaining binding at 0.3 µM (TYRO3; sheet T-418): 82% | remaining binding at 0.3 µM ([2]; sheet T-418): 40% | remaining binding at 0.3 µM (EGFR(L861Q); sheet T-418): 86% | remaining binding at 0.3 µM (NEK1; sheet T-418): 90% | remaining binding at 0.3 µM (EPHB2; sheet T-418): 100% | remaining binding at 0.3 µM (FLT3(R834Q); sheet T-418): 88% | remaining binding at 0.3 µM (CDC2L1; sheet T-418): 92% | remaining binding at 0.3 µM (TIE1; sheet T-418): 100% | remaining binding at 0.3 µM (TESK1; sheet T-418): 99% | remaining binding at 0.3 µM (PIP5K1C; sheet T-418): 100% | remaining binding at 0.3 µM (TLK1; sheet T-418): 100% | remaining binding at 0.3 µM (CSNK1G3; sheet T-418): 100% | remaining binding at 0.3 µM (CLK2; sheet T-418): 88% | remaining binding at 0.3 µM (NIM1; sheet T-418): 100% | remaining binding at 0.3 µM (MYLK; sheet T-418): 100%
